Measured values: patent US11485714B2, “Hydroxyethylamine-based piperazine compounds, and methods of producing and using the same for treating disease” (National Institute of Immunology, priority 2020, dated 2022)
Marks after values point to notes of the source that are not given here.

Legend:
[1] = test system: Plasmodium berghei NK-65 (chloroquine-resistant); experiment: In vivo blood stage mouse model, modified Peters four-day suppressive test
Procedure: Specifically, a murine model of malaria was developed wherein thirty healthy Swiss albino mice were inoculated intraperitoneally with 1×10^7 Plasmodium berghei NK-65 (chloroquine-resistant) infected red blood cells (RBCs) suspended in RPMI 1640 medium (commercially available from Thermo Fisher Scientific Inc.; 200 μL). A first set of the infected mice was treated each day with a single dose of 50 mg/kg of Compound I, and a second set was not treated. The survival of the mice was monitored to day 30 post-infection using a Kaplan-Meier survival analysis, and the statistical difference in animal survival was analyzed by a log rank test. Representative data for the percent parasitemia for untreated mice (control) and mice treated with Compound I are shown in Table 4 and FIG. 2A and FIG. 2B.
Activity of Compound I (Calxinin) was tested using a slightly modified version of Peter's 4-day suppressive test: initial infection of mice with P. berghei parasites, followed one dose 50 mg/kg of drug treatment, followed by monitoring of parasitemia as well as external signs of disease progression for up to 10 days.
10^7 Plasmodium berghei NK-65 (CQ-resistant) were administered by i.p into Swiss albino mice (6 mice/group). Infected mice were either treated with Compound I (Calxinin) or injected with DMSO alone (untreated vehicle control). […] The survival of the mice was followed up to day 30 post-infection using Kaplan-Meier survival analysis (FIG. 6B). Animal survival was analyzed by a log rank test.

[2] = Hemostatic parameters, plasmatic and whole blood assays (thrombelastography)
Procedure: Studies were performed to assess the effect of Calxinin on hemostatic parameters using plasmatic and whole blood assays.

[3] = test system: L. donavani infected THP1 cells; experiment: Calcium levels in L. donavani infected THP1 cells (Fluo4-AM); assay type: cell-based, Leishmania donovani; settings: 10 μM, within few seconds, preliminary
Procedure: A macrophage differentiated cell culture of THP1 cell lines by phorbol 12-myristate 13-acetate (PMA) concentration of 15 ng/ml was established on 15 mm glass bottom petri dishes. The confluent cells were infected with leishmania promastigotes in 1:5 ratio. The infected macrophages were washed after 24 hr.
Incubation was conducted to remove uninfecting promastigotes with same RPMI medium with 6% FCS. The culture was then washed twice in HEPES-buffered saline solution (HBSS) (in mM: 25 HEPES, 121 NaCl, 5 NaHCO3, 4.7 KCl, 1.2 KH2PO4, 1.2 MgSO4, 2.0 CaCl2), 10 glucose, 0.04 probenecid, and 0.25% (w/v) fatty acid-free BSA, pH 7.4). The culture was switched to the same buffer with Fluo4-AM (1×), Hoechst 33258 (1×) and charged for 40 minutes. The cells were then washed in same buffer without dye and mounted on the stage of inverted LSM 510 Zeiss, […], 1.4 NA, oil-immersion objective, zoom 4-6, z-stacks of […] thin optical sections, 4-8× average, 2,000×2,000 pixel window, range indicator used for optimized illumination, and 488, 543, 633 laser lines used for excitation. Compounds Miltefosine, Amphotericin B, calxinin and DMSO were added during time-course experiments. Preliminary results of Amastigotes treated with DMSO (negative control) and treated Compound 1 (10 μM) were generated.

[4] = In vitro cytotoxicity, HepG2; assay type: cell-based; settings: human, HepG2 cells; read-out: CC50 (50% cell toxicity)
[5] = In vitro cytotoxicity, Huh 7.1 (Alamar Blue); assay type: cell-based; settings: human, Huh 7.1 cells; read-out: CC50 (50% cell toxicity)
Procedure: In addition, the cell viability of Huh 7 and HEK293 cells was evaluated post drug exposure using the Alamar Blue assay [Riss, Terry L., et al. “Cell viability assays.” Assay Guidance Manual [Intenet]. Eli Lilly & Company and the National Centre for Advancing Translational Sciences, 2016]. Cells ([…]) were exposed to varying concentrations of test compounds, for 24 hours in 96-well plate format along with 10/100 μL Alamar Blue solution (10×=4.8 mM in phosphate buffer) per well. […] Results from the cytotoxicity assays were expressed as CC50 at which 50% of the cells died/metabolically slowed down due to drug exposure compared to the non-treated and vehicular control.
The cytotoxicity of Compound I was tested by exposing peripheral blood mononuclear cells (PBMCs) to drug concentrations corresponding to averages of both Pf3D7 and PfDd2 IC50 values. This was intended to establish whether the observed antiparasitic effects of the compounds were due to non-specific inhibitory activity. […] The IC50 required for killing the parasite is <90 nM. Therefore, in order to be toxic for human cells we have to use over 650 fold concentration.

parasitized RBC = experiment: Calcium levels in parasitized RBC; assay type: cell-based; settings: 10 μM, within a few seconds, preliminary
Procedure: No difference in the activity of the Calcium T Channel was observed under control conditions and with increasing concentrations of the Calxinin molecule, there is no difference in the amplitude of the calcium channel currents, nor in the dependence with the membrane potential of calcium channel activation up to 1 microMolar, that is […] higher than the IC50 to kill the parasite. Human T-type calcium channel currents were measured with the Patch clamp on the “whole cell” configuration in HEK cells constitutively expressing human T type Calcium channel. […] As shown, in FIG. 9 no difference in the amplitude of the calcium channel currents, nor in the dependence with the membrane potential of calcium channel activation even at 11 times the IC50 concentration. Preliminary results of parasitized RBC treated with CQ (I0 μM)+DMSO (negative control) and treated Compound I (10 μM, data not shown) were generated.

[6] = test system: sexual erythrocytic stages of PfDd2 cultures; experiment: Anti-gametocyte activity, stage I and II gametocytes; assay type: cell-based, Plasmodium falciparum
Procedure: The effect of Compound I was tested on the development of sexual erythrocytic stages of PfDd2 cultures. Stage I and II gametocytes, were incubated for forty-eight hours with drug concentration considering the IC50 values of compounds at asexual stage assay.

NC(Cc1ccccc1)C(O)CN1CCN(Cc2ccc(C(F)(F)F)cc2)CC1 (centres unmarked) [Compound I]
activity against mixed blood stages ([1]; 50 mg/kg/day (single dose), NK64 strain): significant activity | Percent Parasitemia Day 3 ([1]; Table 4, 50 mg/kg each day): 0.21 ** (P < 0.001) | Percent Parasitemia Day 7 ([1]; Table 4, 50 mg/kg each day): 2.45 * (P < 0.03) | Percent Parasitemia Day 10 ([1]; Table 4, 50 mg/kg each day): 12.3 * (P < 0.01) | % Parasitemia Day 3 ([1]; Table 5, one dose 50 mg/kg): 0.21 ** (P < 0.001) % | % Parasitemia Day 7 ([1]; Table 5, one dose 50 mg/kg): 2.45 * (P < 0.03) % | % Parasitemia Day 10 ([1]; Table 5, one dose 50 mg/kg): 12.3 * (P < 0.01) % | reduction in parasite load ([1]; single dose 10 mg/kg, P. berghei NK64, mixed blood stage parasites): 30% | anticoagulant effect (hemostatic parameters) [2]: no adverse impact | clot formation by thrombelastography ([2]; up to 20 μg/ml): did not impact clot formation | calcium levels of Macrophage+L. donavani [3]: changes in the calcium levels | CC50 [4]: 1350 µM | CC50 at 24 h [5]: 100 µM | calcium levels of packed red blood cells (pRBCs) (parasitized RBC): changes in the calcium levels | maturation of stage III to V gametocytes (PfDd2) ([6]; 48 hours at asexual stage IC50, vs DMSO control): 41.0 | gametocyte morphology ([6]; 48 hours, vs DMSO control): morphologically distorted gametocytes | decreased proportion of stage III to V gametocytes ([6]; 48 hrs at 88 nM): up to 59%
